According to the CheMixHub viscosity set:

Assay: xn = mol fraction of the nth substance listed

Clc1cccc2ccccc12 + Cc1ccc(C)cc1
viscosity [mPa·s], 101.33 kPa
Settings | x1 = 0.0966 | x1 = 0.1961 | x1 = 0.2964 | x1 = 0.3991 | x1 = 0.4981 | x1 = 0.597 | x1 = 0.7003 | x1 = 0.7974 | x1 = 0.8991
298.15 K | 0.635 | 0.737 | 0.847 | 1.002 | 1.16 | 1.36 | 1.614 | 1.899 | 2.294
303.15 K | 0.596 | 0.687 | 0.789 | 0.926 | 1.074 | 1.25 | 1.475 | 1.723 | 2.072
308.15 K | 0.562 | 0.644 | 0.738 | 0.863 | 0.997 | 1.158 | 1.357 | 1.576 | 1.882

CCCCn1cc[n+](C)c1.F[P-](F)(F)(F)(F)F + CC(C)=O
Settings | viscosity [mPa·s]
298.15 K, 101 kPa, x2 = 0.1935 | 88.9

C[NH+](C)CCO.O=C([O-])CCCC(=O)O + O
101 kPa, x2 = 0.89
Settings | viscosity [mPa·s]
298 K | 19.3
313 K | 11.8

CCCCC(CC)CN (centres undefined) + COCCOCCOCCOCCOC
viscosity [mPa·s], 101.33 kPa
Settings | x2 = 0.0607 | x2 = 0.127 | x2 = 0.199 | x2 = 0.279 | x2 = 0.368 | x2 = 0.466 | x2 = 0.576 | x2 = 0.699 | x2 = 0.84
303.2 K | 1.04 | 1.14 | 1.26 | 1.39 | 1.58 | 1.74 | 1.99 | 2.24 | 2.55
313.2 K | 0.89 | 0.97 | 1.07 | 1.16 | 1.3 | 1.43 | 1.59 | 1.87 | 2.09

CCCCn1cc[n+](C)c1.F[P-](F)(F)(F)(F)F + O
298.15 K, 101 kPa
Settings | viscosity [mPa·s]
x2 = 0.0518 | 198
x2 = 0.2146 | 92.5

CC(F)(F)F + FCC(F)(F)F
viscosity [mPa·s], 101 kPa
Settings | x2 = 0.247 | x2 = 0.5 | x2 = 0.743
298.15 K | 0.126 | 0.1447 | 0.1691
313.15 K | 0.105 | 0.1187 | 0.1358

CCCCn1cc[n+](C)c1.F[P-](F)(F)(F)(F)F + Cc1ccccc1
Settings | viscosity [mPa·s]
310.65 K, 101 kPa, x1 = 0.8 | 31.65

COCCOCCOCCOCCOC + CCC(C)O
viscosity [mPa·s]
Settings | 298.15 K | 308.15 K | 318.15 K | 323.15 K
101 kPa, x1 = 0.0018 | 3.082 | 2.157 | 1.554 | –
101 kPa, x1 = 0.0046 | 3.032 | 2.132 | 1.544 | –
101 kPa, x1 = 0.0146 | 2.91 | 2.069 | 1.515 | –
101 kPa, x1 = 0.0257 | 2.787 | 2.024 | 1.493 | –
101 kPa, x1 = 0.0738 | 2.439 | 1.834 | 1.408 | –
101 kPa, x1 = 0.0988 | – | 1.777 | 1.368 | –
101.3 kPa, x2 = 0.5011 | – | – | – | 1.495
101.3 kPa, x2 = 0.6997 | – | – | 1.445 | –

COC(C)(C)C + c1ccccc1
Settings | viscosity [mPa·s]
293.15 K, 101.33 kPa, x1 = 0.0933 | 0.629
293.15 K, 101.33 kPa, x1 = 0.1906 | 0.5805
293.15 K, 101.33 kPa, x1 = 0.2994 | 0.5449
293.15 K, 101.33 kPa, x1 = 0.3965 | 0.5122
293.15 K, 101.33 kPa, x1 = 0.5143 | 0.4813
293.15 K, 101.33 kPa, x1 = 0.6083 | 0.4593
293.15 K, 101.33 kPa, x1 = 0.7015 | 0.4466
293.15 K, 101.33 kPa, x1 = 0.8071 | 0.416
293.15 K, 101.33 kPa, x1 = 0.9024 | 0.4052
298.15 K, 101 kPa, x1 = 0.0502 | 0.566
298.15 K, 101 kPa, x1 = 0.0999 | 0.551
298.15 K, 101 kPa, x1 = 0.1994 | 0.499
298.15 K, 101 kPa, x1 = 0.3005 | 0.473
298.15 K, 101 kPa, x1 = 0.4006 | 0.457
298.15 K, 101 kPa, x1 = 0.5003 | 0.437
298.15 K, 101 kPa, x1 = 0.6 | 0.422
298.15 K, 101 kPa, x1 = 0.7003 | 0.397
298.15 K, 101 kPa, x1 = 0.8 | 0.395
298.15 K, 101 kPa, x1 = 0.8997 | 0.376
298.15 K, 101 kPa, x1 = 0.9497 | 0.372
298.15 K, 101.33 kPa, x1 = 0.0933 | 0.5806
298.15 K, 101.33 kPa, x1 = 0.1906 | 0.5446
298.15 K, 101.33 kPa, x1 = 0.2994 | 0.5084
298.15 K, 101.33 kPa, x1 = 0.3965 | 0.4776
298.15 K, 101.33 kPa, x1 = 0.5143 | 0.4676
298.15 K, 101.33 kPa, x1 = 0.6083 | 0.4417
298.15 K, 101.33 kPa, x1 = 0.7015 | 0.4227
298.15 K, 101.33 kPa, x1 = 0.8071 | 0.4037
298.15 K, 101.33 kPa, x1 = 0.9024 | 0.398
303.15 K, 101 kPa, x1 = 0.118 | 0.536
303.15 K, 101 kPa, x1 = 0.2242 | 0.51
303.15 K, 101 kPa, x1 = 0.3408 | 0.483
303.15 K, 101 kPa, x1 = 0.5123 | 0.445
303.15 K, 101 kPa, x1 = 0.6615 | 0.413
303.15 K, 101 kPa, x1 = 0.8195 | 0.382

CCc1ccccc1 + CC1COC(=O)O1
viscosity [mPa·s], 101 kPa
Settings | 298.15 K | 308.15 K
x2 = 0.0294 | 0.6462 | 0.5585
x2 = 0.042 | 0.6512 | 0.5634
x2 = 0.0729 | 0.6609 | 0.5767
x2 = 0.0821 | 0.6655 | 0.5811
x2 = 0.1013 | 0.6735 | 0.5908
x2 = 0.2023 | 0.7164 | 0.6552
x2 = 0.3008 | 0.8062 | 0.7411
x2 = 0.4012 | 0.9344 | 0.8533
x2 = 0.5001 | 1.098 | 0.9894
x2 = 0.6001 | 1.302 | 1.154
x2 = 0.7001 | 1.544 | 1.345
x2 = 0.8009 | 1.827 | 1.567
x2 = 0.8992 | 2.14 | 1.811

COCCOCCOCCOCCOC + CO
viscosity [mPa·s], 100 kPa
Settings | 293.15 K | 298.15 K | 303.15 K
x2 = 0.0463 | 3.726 | 3.3 | 2.916
x2 = 0.1031 | 3.616 | 3.209 | 2.845
x2 = 0.1978 | 3.408 | 3.036 | 2.691
x2 = 0.3111 | 3.132 | 2.803 | 2.493
x2 = 0.3886 | 2.919 | 2.611 | 2.334
x2 = 0.494 | 2.592 | 2.326 | 2.089
x2 = 0.5935 | 2.25 | 2.031 | 1.829
x2 = 0.6966 | 1.868 | 1.696 | 1.537
x2 = 0.7966 | 1.467 | 1.344 | 1.225
x2 = 0.8472 | 1.243 | 1.145 | 1.047
x2 = 0.8972 | 1.024 | 0.948 | 0.871
x2 = 0.9495 | 0.803 | 0.744 | 0.683

CC(O)C(=O)O (centres undefined) + O=C(O)[C@@H]1CCCN1
Settings | viscosity [mPa·s]
323.15 K, 100 kPa, x1 = 0.5 | 997.4
